Measured values reported in ChEMBL document CHEMBL1201862, “PubChem BioAssay data set” (2004).
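48-hour exposure; five concentrations; linearly interpolated endpoints. Here, GI50 denotes the concentration required for 50% inhibition of growth.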 The source made the active and inactive calls. Cut-off read from the data, not from the text of the source: active = GI50 up to about 1.1 µM and inactive = higher.

Experiments:
Assay in all cases: NCI-60 cell line screen, 48 h
[1] = tested on: BT-549
[2] = tested on: CAKI-1
[3] = tested on: DU-145
[4] = tested on: HOP-92
[5] = tested on: HT-29
[6] = tested on: LOX IMVI
[7] = tested on: M14
[8] = tested on: MCF7
[9] = tested on: MDA-N
[10] = tested on: NCI-H460
[11] = tested on: OVCAR-5
[12] = tested on: OVCAR-8
[13] = tested on: SF-268
[14] = tested on: SF-295
[15] = tested on: SK-MEL-2
[16] = tested on: SNB-75
[17] = tested on: SW-620
[18] = tested on: TK-10
[19] = tested on: HL-60

SMILES	GI50 [1]	GI50 [2]	GI50 [3]	GI50 [4]	GI50 [5]	GI50 [6]	GI50 [7]	GI50 [8]	GI50 [9]	GI50 [10]	GI50 [11]	GI50 [12]	GI50 [13]	GI50 [14]	GI50 [15]	GI50 [16]	GI50 [17]	GI50 [18]	GI50 [19]
NC(=O)C1=NNc2ccccc2C(=O)N1c1ccccc1	> 100 µM (inactive)	> 100 µM (inactive)	> 100 µM (inactive)	> 10 µM (inactive)	> 100 µM (inactive)	> 100 µM (inactive)	> 100 µM (inactive)	> 100 µM (inactive)	> 100 µM (inactive)	> 100 µM (inactive)	> 100 µM (inactive)	> 100 µM (inactive)	> 100 µM (inactive)	> 100 µM (inactive)	> 100 µM (inactive)	14.5 µM (inactive)	> 100 µM (inactive)	> 100 µM (inactive)	
N#Cc1c(-c2ccccc2)c(/C=N/c2ccc(F)cc2)c(=O)n2c1[nH]c1ccccc12	35.5 µM (inactive)	13.6 µM (inactive)				23.8 µM (inactive)	14.4 µM (inactive)	36.6 µM (inactive)	10.4 µM (inactive)	17.8 µM (inactive)	26.7 µM (inactive)	34.2 µM (inactive)	29.4 µM (inactive)	18.5 µM (inactive)	26.9 µM (inactive)	39 µM (inactive)	29.5 µM (inactive)	20.8 µM (inactive)	
CCCCC(/C=C\COC1CCCCO1)=C/C(=O)OCC (stereo not given)	> 100 µM (inactive)	> 100 µM (inactive)	> 100 µM (inactive)		38.4 µM (inactive)	41.4 µM (inactive)	91.6 µM (inactive)	46.9 µM (inactive)	63.1 µM (inactive)	98.6 µM (inactive)	> 100 µM (inactive)	94.4 µM (inactive)	> 100 µM (inactive)	44.4 µM (inactive)	> 100 µM (inactive)	48.8 µM (inactive)	70.6 µM (inactive)	> 100 µM (inactive)	29.2 µM (inactive)
CC(C)OC(=O)[C@H]1ON2O[C@H](O[C@@H]3CCCC[C@H]3c3ccccc3)C([Si](C)(C)c3ccccc3)[C@H]3OC(=O)[C@@H]1C32 (stereo not given in full)	> 100 µM (inactive)	> 100 µM (inactive)	> 100 µM (inactive)	> 100 µM (inactive)	> 100 µM (inactive)	> 100 µM (inactive)	> 100 µM (inactive)	30.1 µM (inactive)		> 100 µM (inactive)		> 100 µM (inactive)	> 100 µM (inactive)	> 100 µM (inactive)	> 100 µM (inactive)	> 100 µM (inactive)	> 100 µM (inactive)	> 100 µM (inactive)	> 100 µM (inactive)
CN1C(=O)C2CCCC(=O)N2c2cccnc21 (stereo not given)	> 100 µM (inactive)	> 100 µM (inactive)	> 100 µM (inactive)		> 100 µM (inactive)	> 100 µM (inactive)		> 100 µM (inactive)	> 100 µM (inactive)	> 100 µM (inactive)		> 100 µM (inactive)	> 100 µM (inactive)	> 100 µM (inactive)	32.4 µM (inactive)		> 100 µM (inactive)	> 100 µM (inactive)	> 100 µM (inactive)
Oc1ccc2c(c1)c1c(n2CCN2CCOCC2)-c2ccccc2CC1	33.6 µM (inactive)	33.7 µM (inactive)			24.2 µM (inactive)	23.6 µM (inactive)	26.3 µM (inactive)	31.6 µM (inactive)	45.4 µM (inactive)	5.83 µM (inactive)	24.4 µM (inactive)	33.6 µM (inactive)	30 µM (inactive)	36.4 µM (inactive)	23.1 µM (inactive)	28 µM (inactive)	30.1 µM (inactive)	29.4 µM (inactive)	42.3 µM (inactive)
Nc1ccccc1-n1c2c(c3ccccc3c1=O)C(=O)c1ccccc1-2	0.857 µM (active)	16.7 µM (inactive)	34 µM (inactive)	16.6 µM (inactive)	18.4 µM (inactive)	12.5 µM (inactive)	61.7 µM (inactive)	13.3 µM (inactive)		24.5 µM (inactive)	> 100 µM (inactive)	14.5 µM (inactive)	8.24 µM (inactive)	9.1 µM (inactive)	19.9 µM (inactive)	11.8 µM (inactive)	14.5 µM (inactive)	> 10 µM (inactive)	0.046 µM (active)
CC(C)(C)OC(=O)N/C(C=O)=C\C1CCCCC1	25.2 µM (inactive)	20.4 µM (inactive)	29 µM (inactive)		27.2 µM (inactive)	14.3 µM (inactive)	16.2 µM (inactive)	25.6 µM (inactive)	18.5 µM (inactive)	20.2 µM (inactive)	19.8 µM (inactive)	16.3 µM (inactive)	17.4 µM (inactive)	29.8 µM (inactive)	24.8 µM (inactive)	29.7 µM (inactive)	27.3 µM (inactive)	17.7 µM (inactive)	25.4 µM (inactive)
BrC(c1cccc2ccccc12)c1cccc2ccccc12	21.4 µM (inactive)	22.2 µM (inactive)	13.6 µM (inactive)	13.5 µM (inactive)	18.3 µM (inactive)	15.8 µM (inactive)	17.3 µM (inactive)		15.1 µM (inactive)	15.9 µM (inactive)	27.1 µM (inactive)	17.3 µM (inactive)	12.1 µM (inactive)	25.5 µM (inactive)	14.9 µM (inactive)	13.5 µM (inactive)	16.7 µM (inactive)	29 µM (inactive)	20 µM (inactive)
O=C1OCC2=Nc3cccc4cccc(c34)N12	> 100 µM (inactive)	> 100 µM (inactive)	> 100 µM (inactive)	< 0.01 µM (active)	> 100 µM (inactive)	> 100 µM (inactive)	> 100 µM (inactive)	> 100 µM (inactive)		> 100 µM (inactive)		> 100 µM (inactive)	> 100 µM (inactive)	> 100 µM (inactive)		> 100 µM (inactive)	> 100 µM (inactive)	> 100 µM (inactive)	> 100 µM (inactive)
COC(=O)[C@H](Cc1ccccc1)NC(=O)N(CCN(CCC#N)C(=O)N[C@H](C(=O)OC)C(C)C)c1ccccc1	> 100 µM (inactive)	> 100 µM (inactive)	> 100 µM (inactive)	22.8 µM (inactive)		> 100 µM (inactive)	> 100 µM (inactive)	> 100 µM (inactive)	> 100 µM (inactive)		> 100 µM (inactive)	> 100 µM (inactive)	> 100 µM (inactive)	> 100 µM (inactive)	41.8 µM (inactive)	> 100 µM (inactive)	> 100 µM (inactive)	> 100 µM (inactive)	
O=c1[nH]nc(-c2ccccc2)c2[nH]c(-c3ccccc3)cc12	> 100 µM (inactive)	> 100 µM (inactive)	> 100 µM (inactive)	> 100 µM (inactive)	12.2 µM (inactive)	> 100 µM (inactive)	> 100 µM (inactive)		> 100 µM (inactive)		> 100 µM (inactive)	> 100 µM (inactive)	> 100 µM (inactive)	> 100 µM (inactive)		45.8 µM (inactive)	> 100 µM (inactive)		> 100 µM (inactive)
COc1ccc2c(c1)/C(=C\c1cccc(/C=C3/C(=O)Nc4ccc(OC)cc43)n1)C(=O)N2	0.91 µM (active)	1.99 µM (inactive)	2.1 µM (inactive)	2.25 µM (inactive)			1.32 µM (inactive)	0.466 µM (active)		1.4 µM (inactive)	1.01 µM (active)	1.17 µM (inactive)	2.42 µM (inactive)	2.47 µM (inactive)	3.01 µM (inactive)	19.1 µM (inactive)	0.982 µM (active)	1.73 µM (inactive)	0.506 µM (active)
CC1(C(=O)O)CCCC1C(=O)O (stereo not given)	> 100 µM (inactive)	> 100 µM (inactive)	> 100 µM (inactive)	> 100 µM (inactive)	> 100 µM (inactive)	> 100 µM (inactive)	> 100 µM (inactive)		> 100 µM (inactive)	> 100 µM (inactive)	> 100 µM (inactive)	> 100 µM (inactive)	> 100 µM (inactive)	> 100 µM (inactive)	> 100 µM (inactive)		> 100 µM (inactive)	> 100 µM (inactive)	> 100 µM (inactive)
C=C[C@]1(C)CC[C@]2(C)C(CC[C@@]3(C)C2C[C@H](O)[C@H](O)[C@@]3(C)O)C1 (stereo not given in full)	> 100 µM (inactive)	> 100 µM (inactive)	> 100 µM (inactive)		> 100 µM (inactive)	> 100 µM (inactive)	> 100 µM (inactive)	> 100 µM (inactive)	> 100 µM (inactive)	> 100 µM (inactive)	> 100 µM (inactive)	> 100 µM (inactive)	> 100 µM (inactive)	> 100 µM (inactive)	> 100 µM (inactive)	> 100 µM (inactive)	> 100 µM (inactive)	> 100 µM (inactive)	> 100 µM (inactive)
Cc1nc2c(O)cccc2c(=O)[nH]1	174 µM (inactive)	256 µM (inactive)		845 µM (inactive)	345 µM (inactive)	485 µM (inactive)	611 µM (inactive)	621 µM (inactive)	504 µM (inactive)	263 µM (inactive)	382 µM (inactive)	437 µM (inactive)	467 µM (inactive)	351 µM (inactive)	> 1000 µM (inactive)	233 µM (inactive)	> 1000 µM (inactive)	302 µM (inactive)	174 µM (inactive)
